Structures can show the parent of a compound that is named as a salt.
Assay: Aerosol analysis at 60 LPM, Turbospin (Example 11)
Description: The aerosol performance of a SEDS™ processed sample of bromocriptine mesylate was assessed in a unit-dose passive inhaler device (Turbospin PH & T (Italy)), at a peak inspiratory flow rate (PFIR) of 28.3 LPM and 60 LPM.

## CC(C)C[C@H]1C(=O)N2CCC[C@H]2[C@]2(O)O[C@](NC(=O)[C@@H]3C=C4c5cccc6[nH]c(Br)c(c56)C[C@H]4N(C)C3)(C(C)C)C(=O)N12 [SEDS bromocriptine, bromocriptine mesylate]
  aerodynamic diameter of aerosol particles: 4.2 μm

Reference: patent US10945972B2, “Particulate materials” (Nektar Therapeutics, priority 2002, dated 2021)
